# Paper PMC8143339, “PK/PD Modeling of the PDE7 Inhibitor—GRMS-55 in a Mouse Model of Autoimmune Hepatitis” (Pharmaceutics, 2021)
# Experiment: Stability in serum samples and stock solutions (bioanalytical validation)
# Type: physicochemical, mouse
# Experimental: To analyze GRMS-55 concentrations in the mouse serum, we used the previously developed HPLC method with UV detection. A detailed description of this method was published in a supplementary material of our previous publication. Briefly, 10 μL of 4-(8-((furan-2-ylmethyl)amino)-1,3-dimethyl-2,6-dioxo-1,2,3,6-tetrahydro-7H-purin-7-yl)-N′-(2-hydroxybenzylidene)butanehydrazide solution as internal standard (IS) was added to tubes containing 100 μL of the analyzed serum. The samples were mixed with 20 μL of 1 M hydrochloric acid solution, subjected to extraction with 1 mL of dichloromethane, and centrifuged at 10,000× g for 8 min. The organic layers were transferred to new tubes and evaporated with nitrogen at 37 °C. Dry residues were then dissolved in 100 μL of mobile phase and transferred to glass vial inserts for HPLC analysis (LaChrom Elite, Merck-Hitachi, Darmstadt, Germany). […] Within runs and between runs, precision and accuracy met the acceptance criteria, i.e., they were less than 15% expressed as coefficients of variation % (CVs%) or ±15% of the nominal concentrations, respectively, for all quality control levels. Recoveries of the analyzed compound and IS assessed by comparing the peak areas of extracted samples with corresponding extracts of blanks spiked with the analyte post-extraction ranged from 94% to 98%. The lower limit of quantification was 0.05 mg·L^−1. […]
structure (smiles),measurement,setting,value
"Cn1c(=O)c2c(nc(NCCc3ccccc3)n2CCCC(=O)NN=Cc2ccccc2O)n(C)c1=O [GRMS-55, 4-(1,3-dimethyl-2,6-dioxo-8-(phenethylamino)-1,2,3,6-tetrahydro-7H-purin-7-yl)-N′-(2-hydroxybenzylidene)butanehydrazide]","stability in serum samples, time stable",room temperature,at least 12 h
same,"stability in serum samples, time stable",–20 °C,12 months
